According to patent US7998940B2, “Aptamers to von Willebrand factor and their use as thrombotic disease therapeutics” (Archemix Corp., priority 2004, dated 2011):
Entries after “also recorded” stand apart in the source; their conditions may differ.

Tests used:
platelet function = assay: ex vivo PFA-100 platelet function after 0.5 mg/kg IV bolus in cynomolgus macaques; conditions: 0.5 mg/kg single IV bolus
Description: (§1) Following IV administration, blood was collected percutaneously at various time points post-dose for PK and PD analysis. PD effect of ARC1779 on platelet function was determined by PFA-100 assays and effect of ARC1779 on bleeding was measured by CBT time. In addition, plasma samples were analyzed by HPLC for quantitation of ARC1779 levels. PK parameter estimates were determined by 2-compartment analysis.
(§2) C. macaques were dosed at 0.5 mg/kg IV bolus with ARC1779 (SEQ ID NO 320). PFA-100 closure time, BIPA and cutaneous bleeding time (“CBT”) were all measured as a function of time throughout the studies. BIPA and PFA-100 closure times were measured as described in previously in Example 3. Cutaneous bleeding times were measured using standard protocols described as follows.

[1] = cutaneous bleeding time (CBT) in cynomolgus macaques; format: in vivo; conditions: in words
Description: as §1, §2
A blood pressure cuff was applied to the biceps region of the forearm to be tested and inflated to maintain a constant pressure of 40 mmHg. Using a Surgicutt® Automated Incision Device (ITC, Edison, N.J.), a longitudinal incision was made over the lateral aspect of the volar surface of the forearm distal to the antecubital crease. A stopwatch was started at the time of incision. […] Bleeding time is determined to within 30 seconds of the time when blood is no longer wicked onto the paper. […]

[2] = system: intra-arterial thrombosis of carotid arteries; assay: cynomolgus macaque electrolytic thrombosis model; format: in vivo, cynomolgus monkeys
Description: A study was performed to test the efficacy of ARC1779 (SEQ ID NO 320) in inhibiting intra-arterial thrombosis in a well documented non-human primate electrolytic thrombosis model. See, e.g., Rote et al., Stroke, 1994: 25, 1223-1233.
Each animal was anesthetized prior to surgical preparation, intubated and maintained in anesthesia with isoflurane inhalant anesthetic to effect delivered through a volume-regulated respirator. An intravenous catheter was also placed in a peripheral vein for administration of lactated Ringer's solution during the procedure.
A catheter was placed in the femoral artery of each animal for continuous monitoring of arterial blood pressure. Similarly a catheter was placed in the femoral vein for blood sample collection. Each carotid artery was instrumented with a Doppler flow probe connected to a flow meter. The flow probes were placed around the artery at a point proximal to the insertion of the intra-arterial electrode and stenosis. The stenosis was placed around each carotid artery so that the […] was reduced by approximately 50% to 60% without altering the mean […]. Blood flow in the carotid arteries was monitored and recorded continuously throughout the observation periods.
Electrolytic injury to the intimal surface of each carotid artery was accomplished via placement of an intravascular electrode. Each electrode was connected to the positive pole of a constant current device and cathode connected to a distant subcutaneous site. Continuous current was delivered to each vessel for a period of 3 hours or for 30 minutes after complete occlusion, whichever was shorter.
Once the electrodes were placed on the right carotid artery (“RCA”) the animal was administered the test article as indicated in Table 32 above. Approximately 15 minutes after test article administration, the electrical current was applied at 100 μA. Blood samples and CBT measurements were collected at the time points specified in Blood Sample Collection Schedule as indicated in FIG. 31. The current was terminated ˜30 minutes after the blood flow signal remained stable at zero flow (which indicates an occlusive thrombus had been formed at the site) or after 180 minutes of electrical stimulation. Approximately 195 minutes after the test article was administered, the left carotid artery (“LCA”) had electrical current administered in a similar fashion as previously described for the RCA. After termination of all surgical procedures and sample collection each animal was euthanized.
An additional 10 cynomolgus monkeys (2.5 to 3.5 kg) were divided into treatment groups 5 to 7 and were treated according the regimen indicated in Table 33 below.
The animal procedure for each treatment group in Table 33 was conducted as reported for the animals in Example 5B.

PEG20K-NH2-mGmCmGmUdGdCdAmGmUmGmCmCmUmUmCmGmGmCdCmG-s-TmGdCdGdGTmGmCdCmUdCdCmGmUdCmAmCmGmC-3T [ARC1779]
plasma concentration at which platelet function returned to normal (PFA-100) (platelet function): approximately 77 nM | effect on cutaneous bleeding time ([1]; 0.5 mg/kg single IV bolus, 0.5 mg/kg): minimal effect; also recorded: very little increase | cutaneous bleeding time in the electrolytic thrombosis model ([1]; FIG. 34, various doses and time points): at some doses and/or time points in this animal model prolonged CBT was observed, while at other doses and time points CBT was not prolonged | thrombus formation ([2]; in words, sequential 180-minute electrical injuries to the carotid arteries): inhibited thrombus formation | carotid arteries that developed occlusive thrombi ([2]; infusion targeted to constant plasma level of 300 nM): 100% | carotid arteries that developed occlusive thrombi ([2]; infusion targeted to constant plasma level of 500 nM): 63% | carotid arteries that developed occlusive thrombi ([2]; infusion targeted to constant plasma level of 750 nM): 25% | carotid arteries that developed occlusive thrombi ([2]; infusion targeted to constant plasma level of 1000 nM): 0%
